# US20080014253A1, “Lipid-Based Drug Delivery Systems Containing Unnatural Phospholipase A2 Degradable Lipid Derivatives and the Therapeutic Uses Thereof” (priority 2004, published 2008)
# Entries after “also recorded” stand apart in the source; their conditions may differ.
# Columns and labels:
# [1] = format: physicochemical; details: for Main-transition Tm (peak position) / Pre-transition Tm (peak position): multilamellar liposomes, scan rate 20° C./h; for pre-transition of the lipid membrane (Cp-curves): one-component multilamellar liposomes
# Protocol: FIG. 3. Heat capacity, CP, obtained using differential scanning calorimetry at a scan rate of 20° C./h for 0.15 mM multilamellar liposomes: (A) 1-O-DPPC′ (left), DPPC (middle), and 1-O-DPPC (right). (B) 1-O-DPPG′ (left), DPPG (middle) and 1-O-DPPG (right).
# By replacing the ester linkage in the C-1 position with an ether bond, these unnatural phospholipids can furthermore be used as novel prodrug anticancer lipids to make liposomal microcarriers that can be degraded to active anticancer lysoetherlipids by PLA2 [27]. The lipid prodrug analogs (1-O-DPPC and 1-O-DPPG) were synthesized as described earlier. 1,2-dipalmitoyl-sn-glycero-3-phosphocholine (DPPC), 1,2-dipalmitoyl-sn-glycero-3-phosphoglycerol (DPPG), and 1,2-distearoyl-sn-glycero-3-phosphoethanolamine poly(ethylene glycol)2000 (DSPE-PEG2000) were purchased from Avanti Polar Lipids, AL, USA. Multi- and unilamellar liposomes were hydrated in a HEPES buffer solution (10 mM HEPES, 110 mM KCl, 1 mM NaN3, 30 μM CaCl2, 10 μM NaEDTA, pH 7.5) and prepared as described in previous work. Differential scanning calorimetry was carried out in the upscan mode at a scanrate of 20° C./h using multilamellar liposomes. The PLA2 lag time measurements on 1-O-DPPC′ unilamellar liposomes incorporated with small amounts of 1-O-DPPG′ or DSPE-PEG2000 lipids were performed in the gel-to-fluid main phase transition range and the degree of lipid hydrolysis was analyzed using HPLC techniques.
# The heat capacity (Cp) curves obtained using differential scanning calorimetry are shown in FIG. 3 for one-component 1-O-DPPC′ and 1-O-DPPG′ multilamellar liposomes. The Cp-curves show a main peak at 40.1° C. and 40.6° C. reflecting the chain disordering gel-to-fluid main phase transition of the 1-O-DPPC′ and 1-O-DPPG′ lipid membranes, respectively. […] This leads to the formation of low temperature ordered and non-corrugated gel phase (Lβ) that prevails until the unset of the main transition giving rise to a concomitant increase in the integrated melting enthalpy of the main transition (Table 1). Since the 1-O-DPPC′ and 1-O-DPPG′ lipids undergo a transition from an ordered configuration in the low temperature non-corrugated gel phase to a disordered configuration in the high temperature fluid phase without passing through the ripple phase, the integrated melting enthalpy is expected to be higher than for the natural DPPC and DPPG ripple phase forming lipids, which undergo a transition to the fluid phase from a ripple phase with a higher energy than the non-corrugated gel phase. In order to exclude the possibility that the abolished ripple transition is due to having an ether bond in the C-1 position, we have in FIG. 3 also shown Cp-curves obtained on 1-O-DPPC and 1-O-DPPG multilamellar liposomes. Clearly, these Cp-curves show the same characteristic phase behavior as the natural DPPC and DPPG lipids with a pre-transition a few degrees below the main phase transition peak underlining that it is the position of the phosphate head group in the C-3 position on the natural phospholipids that is crucial for ripple formation.
# human secretory PLA2 = target: T1, human secretory PLA2 (Homo sapiens, UniProt P14555); experiment: Hydrolysis of unilamellar liposomes by human secretory PLA2 from human tear fluid; format: biochemical
# T1 construct: from tissue; host or cells: freshly prepared human tear fluid
# T1 sequence (P14555 21-144): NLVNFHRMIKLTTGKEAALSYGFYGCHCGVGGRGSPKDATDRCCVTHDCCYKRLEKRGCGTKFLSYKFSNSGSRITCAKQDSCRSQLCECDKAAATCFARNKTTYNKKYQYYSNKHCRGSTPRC
# Protocol: FIG. 4. Characteristic reaction time profiles at 40° C. for PLA2 hydrolysis of unilamellar. (A) 0.15 mM 1-O-DPPC′ liposomes incubated with 150 nM PLA2 (A. piscivorus piscivorus). (B) 0.15 mM 1-O-DPPG′ liposomes incubated with human secretory PLA2 from 20 μL freshly prepared human tear fluid (B). The PLA2 hydrolysis reaction is monitored by intrinsic fluorescence (solid line) from the enzyme and 90° static light scattering (dashed lines) from the lipid suspension. After adding PLA2 to the equilibrated liposome suspension a characteristic lag time, τ, follows before a sudden increase in the catalytic activity takes place (A).
# FIG. 6. (A) PLA2 (A. piscivorus piscivorus) hydrolysis of 1-O-DPPC′ liposomes containing 0 mol % (▪), 2 mol % (▴), and 10 mol % (∘) 1-O-DPPG′ lipids, and 5 mol % (▾) DSPE-PEG2000 polymer lipids determined by HPLC [28]. The percent lipid hydrolysis is determined 1000 s after the unset of the burst. The concentration of the liposomes was 0.15 mM and the concentration of PLA2 was 150 nM. (B) Hydrolysis of 1-O-DPPG′ unilamellar liposomes determined by HPLC [28]. The PLA2 catalyzed lipid hydrolysis is determined as a function of time after addition of 20 μL freshly prepared human tear fluid to 0.15 mM 1-O-DPPG′ liposomes. […]
molecule,measurement,setting,value
"CCCCCCCCCCCCCCCC(=O)OC[C@H](COP(=O)(O)OCC(O)CO)OC(=O)CCCCCCCCCCCCCCC (stereo partly drawn) [DPPG, 1,2-dipalmitoyl-sn-glycero-3-phosphoglycerol]",Main-transition ΔHm (melting enthalpy),[1],9.8 kcal/mol
same,Pre-transition ΔH (melting enthalpy),[1],1.31 kcal/mol
same,Main-transition Tm (peak position),[1],40.6 °C
same,Pre-transition Tm (peak position),[1],34.3 °C
(S)-1-O-hexadecyl-3-hexadecanoyl-glycero-2-phosphoglycerol [1-O-DPPG′],onset of hydrolysis / lag time,"human secretory PLA2; 0.15 mM liposomes, 20 μL human tear fluid, 40° C.",immediate hydrolysis; also recorded: becomes active immediately after addition
same,activity of human secretory PLA2 towards liposomes,human secretory PLA2; liposomes formed by the lipid,high activity; also recorded: superior substrates
same,Main-transition ΔHm (melting enthalpy),[1],11.3 kcal/mol
same,Main-transition Tm (peak position),[1],40.6 °C
same,pre-transition of the lipid membrane (Cp-curves),[1],abolished
"CCCCCCCCCCCCCCCCOC[C@H](COP(=O)([O-])OCC[N+](C)(C)C)OC(=O)CCCCCCCCCCCCCCC [1-O-DPPC, 1-O-hexadecyl-2-hexadecanoyl-sn-glycero-3-phosphocholine]",Main-transition ΔHm (melting enthalpy),[1],8.5 kcal/mol
same,Pre-transition ΔH (melting enthalpy),[1],0.84 kcal/mol
same,Main-transition Tm (peak position),[1],42.6 °C
same,Pre-transition Tm (peak position),[1],32.0 °C
"CCCCCCCCCCCCCCCCOC[C@@H](COC(=O)CCCCCCCCCCCCCCC)OP(=O)([O-])OCC[N+](C)(C)C [1-O-DPPC′, (S)-1-O-hexadecyl-3-hexadecanoyl-glycero-2-phosphocholine]",Main-transition ΔHm (melting enthalpy),[1],12.8 kcal/mol
same,Main-transition Tm (peak position),[1],40.1 °C
same,pre-transition of the lipid membrane (Cp-curves),[1],abolished
1-O-hexadecyl-2-hexadecanoyl-sn-glycero-3-phosphoglycerol [1-O-DPPG],Main-transition ΔHm (melting enthalpy),[1],9.1 kcal/mol
same,Pre-transition ΔH (melting enthalpy),[1],0.58 kcal/mol
same,Main-transition Tm (peak position),[1],41.8 °C
same,Pre-transition Tm (peak position),[1],34.1 °C
"CCCCCCCCCCCCCCCC(=O)OC[C@H](COP(=O)([O-])OCC[N+](C)(C)C)OC(=O)CCCCCCCCCCCCCCC [DPPC, 1,2-dipalmitoyl-sn-glycero-3-phosphocholine]",Main-transition ΔHm (melting enthalpy),[1],8.7 kcal/mol
same,Pre-transition ΔH (melting enthalpy),[1],1.2 kcal/mol
same,Main-transition Tm (peak position),[1],40.5 °C
same,Pre-transition Tm (peak position),[1],31.9 °C
